system: IL-6 production in TNF-α + IFN-γ-treated HaCaT cells; assay: IL-6 production in TNF-α + IFN-γ-treated HaCaT cells (ELISA); type: cell-based, human; settings: HaCaT cells pre-treated 3 h, then TNF-α + IFN-γ 24 h; result in words
Source text: The skin consists of two basic layers: the epidermis and dermis. The epidermis is mainly composed of keratinocytes. Pro-inflammatory cytokines are known to play an important role in the immune response in keratinocytes. Previous studies have reported the roles of TNF-α and IFN-γ in inducing NF-κB activation, which upregulates the production of IL-6 and IL-8 [25]. […] Accordingly, the effect of the 16 compounds from C. tricuspidata on IL-6 production in TNF-α + IFN-γ-treated HaCaT cells were determined. Briefly, HaCaT cells were pre-incubated with different concentrations of the 16 compounds for 3 h, and then stimulated with TNF-α + IFN-γ for 24 h.
(§1) The cytokines and chemokines in IL-6, IL-8, CCL17 (TARC), and CCL5 (RANTES) HaCaT cells were detected using an enzyme-linked immunosorbent assay. The levels of these cytokines and chemokines were measured using commercial ELISA kits (BioLegend, San Diego, CA, USA), according to the manufacturer’s instructions.
Figure S2. Effects of the 16 compounds from C. tricuspidata on IL-6 production in TNF-α+IFN-γ-treated HaCaT cells (A, B, and C). Cells were pre-treated with the indicated concentrations of the 16 compounds from C. tricuspidata for 3 h and then stimulated with TNF-α+IFN-γ (20 ng/mL) for 24 h. IL-6 levels were determined as described in the Materials and Methods section. The results are presented as the mean ± standard deviation of three experiments. *p < 0.05, **p < 0.01, and ***p < 0.001 compared with TNF-

Molecule	IL-6 production
C=CC(C)(C)c1c(O)c(CC=C(C)C)c2oc3cc(O)c(O)cc3c(=O)c2c1O [Compound 12, macluraxanthone B]	significantly decreased
C=CC(C)(C)c1c(OC)c(CC=C(C)C)c2oc3cc(O)c(O)cc3c(=O)c2c1O [Compound 15, cudracuspixanthone A]	significantly decreased

same assay, conditions: Homo sapiens; HaCaT cells pre-incubated with compound 3 h, then TNF-α + IFN-γ (20 ng/mL) 24 h; ELISA

Molecule	IC50
CC(C)=CCc1c(O)cc2c(c1O)C(=O)C[C@@H](c1cc3c(cc1O)OC(C)(C)C=C3)O2 [Compound 5, cudraflavanone A]	> 40 µM
C=CC(C)(C)c1c(O)cc(O)c2c(=O)c3c(CC=C(C)C)c(O)c(O)cc3oc12 [Compound 11, cudratricusxanthone A]	> 5 µM
C=CC(C)(C)c1c(O)c(CC=C(C)C)c2oc3cc(O)c(O)cc3c(=O)c2c1O [Compound 12, macluraxanthone B]	> 5 µM
C=CC(C)(C)c1c(OC)c(CC=C(C)C)c2oc3cc(O)c(O)cc3c(=O)c2c1O [Compound 15, cudracuspixanthone A]	> 2 µM
C=CC(C)(C)c1c2c(c3oc4cc(O)c(O)cc4c(=O)c3c1O)C=CC(C)(C)O2 [Compound 16, cudratricusxanthone N]	> 2 µM
COc1cc(/C=C/C(=O)CC(=O)/C=C/c2ccc(O)c(OC)c2)ccc1O [curcumin, reference compound]	12 ± 3.13 µM

system: IκBα degradation in HaCaT cells; assay: Degradation of cytoplasmic IκBα in TNF-α + IFN-γ-treated HaCaT cells (Western blotting); type: cell-based, human; settings: HaCaT cells pretreated 3 h, then TNF-α + IFN-γ (20 ng/mL) 10 min; Western blot
Source text: (§2) The activation of NF-κB by TNF-α and/or IFN-γ results from high levels of IκB phosphorylation and the degradation of IκB in keratinocytes. NF-κB–mediated inflammation is a significant component of innate immunity and seems to be a final common pathway for the aggravation of the inflammatory response to stimuli in immune diseases of the skin [56]. To determine the potential mechanisms of the inhibition of TNF-α + IFN-γ-induced pro-inflammatory enzyme and the mediator levels by the six compounds from C. tricuspidata, their effects on the phosphorylation and degradation of cytoplasmic IκBα and on p65 translocation to the nucleus were investigated. […] In addition, compounds 13, 4, and 14 inhibited the phosphorylation of IκBα (Figure 5C,D). When HaCaT cells were exposed to TNF-α + IFN-γ, NF-κB p65 translocated from the cytoplasm to the nucleus.
(§3) Figure 5 Effects of the six compounds from C. tricuspidata on the degradation of IκB-α (A,B), the phosphorylation of IκBα (C,D), and the translocation of NF-κB p65 to the nucleus (E,F) in HaCaT cells. Cells were pretreated with the six compounds from C. tricuspidata at the indicated concentrations for 3 h and stimulated with TNF-α + IFN-γ (20 ng/mL) for 10 min. IκBα, p-IκBα, and NF-κB p65 were analyzed using Western blotting, as described in the Materials and Methods section. Representative blots from four independent experiments are presented. The immunoblots were quantified using ImageJ software. The band intensity was normalized to that of actin or anti-proliferating cell nuclear antigen (PCNA). * p < 0.05, ** p < 0.01, *** p < 0.001 compared with TNF-α + IFN-γ only.
(§4) Cells were harvested and pelleted via centrifugation at 200× g for 3 min, washed with PBS, and lysed in 20 mM Tris-HCl buffer (pH 7.4) containing a protease inhibitor mixture (0.1 mM phenylmethanesulfonyl fluoride, 5 mg/mL aprotinin, 5 mg/mL pepstatin A, and 1 mg/mL chymostatin). The protein concentration was determined using a protein assay dye reagent concentrate (#5000006; Bio-Rad Laboratories, Hercules, CA, USA). A total of 30 micrograms of protein from each sample was resolved using 7.5% and 12% sodium dodecyl sulfate-polyacrylamide gel electrophoresis. Thereafter, the proteins were electrophoretically transferred onto Hybond enhanced chemiluminescence (ECL) nitrocellulose membranes (Bio-Rad Laboratories). The membranes were blocked with 5% skimmed milk, and sequentially incubated with the relevant primary antibody and horseradish peroxidase-conjugated secondary antibody, prior to ECL detection (Pierce Biotechnology, Rockford, IL, USA).
(§5) HaCaT cells were homogenized in PER-Mammalian Protein Extraction Buffer (1:20, w:v) (Pierce Biotechnology, Rockford, IL, USA) containing freshly added protease inhibitor cocktail I (EMD Biosciences, San Diego, CA, USA) and 1 mM phenylmethanesulfonyl fluoride. The cytosolic fractions were prepared using centrifugation at 16,000× g for 5 min at 4 °C, while the nuclear and cytoplasmic cell extracts were prepared using NE-PER nuclear and cytoplasmic extraction reagents, respectively (Pierce Biotechnology, Rockford, IL, USA).

Molecule	degradation of IκBα in the cytoplasm
C=CC(C)(C)c1c(O)c(CC=C(C)C)c2oc3cc(O)c(O)cc3c(=O)c2c1O [Compound 12, macluraxanthone B]	inhibit

system: IL-8 production in TNF-α + IFN-γ-treated HaCaT cells; assay: IL-8 production in TNF-α + IFN-γ-treated HaCaT cells (ELISA); type: cell-based, human; settings: HaCaT cells pre-treated 3 h, then TNF-α + IFN-γ 24 h; result in words
Experimental: Next, the effect of the 16 compounds from C. tricuspidata on IL-8 production in HaCaT cells were determined. Briefly, HaCaT cells were pre-incubated with different concentrations of the 16 compounds for 3 h. Thereafter, the cells were subjected to TNF-α + IFN-γ stimulation for 24 h. […] Compound 2, with its flavanone skeletons, has been studied for its cyclooxygenase and tyrosinase inhibitory effects. In a previous study, compound 2 altered the anti-neuroinflammatory response in microglia. Compound 6, a prenylated flavanone, has been reported to have apoptotic effects on A375.S2 melanoma cells and to lead to the induction of apoptotic cell death in KM12, Caco-2, HT29, HCC2998, HCT116, and SW48 cell lines. […] This is the first report on the biological action of compounds 2, 6, 12, 13, 4, and 14 on the inhibitory effects of skin inflammatory factors in skin HaCaT cells. Therefore, further mechanism studies of these six compounds in HaCaT cells were conducted.
as §1
Figure S3. Effects of the 16 compounds from C. tricuspidata on IL-8 (A, B, and C) production in TNF-α+IFN-γ-treated HaCaT cells. The cells were pre-treated with the indicated concentrations of the C. tricuspidata compounds for 3 h, and then stimulated with TNF-α+IFN-γ (20 ng/mL) for 24 h. […] levels were determined as described in the Materials and Methods section. Data are expressed as the mean ± standard deviation of three experiments. *p < 0.05, **p < 0.01, and ***p < 0.001 compared with TNF- […]
(1 picture or pasted object on this page, not shown here)

Molecule	IL-8 production
CC(C)=CCc1c(O)cc2c(c1O)C(=O)C[C@@H](c1cc3c(cc1O)OC(C)(C)C=C3)O2 [Compound 5, cudraflavanone A]	decreased
C=CC(C)(C)c1c(O)c(CC=C(C)C)c2oc3cc(O)c(O)cc3c(=O)c2c1O [Compound 12, macluraxanthone B]	decreased
C=CC(C)(C)c1c(OC)c(CC=C(C)C)c2oc3cc(O)c(O)cc3c(=O)c2c1O [Compound 15, cudracuspixanthone A]	decreased
C=CC(C)(C)c1c2c(c3oc4cc(O)c(O)cc4c(=O)c3c1O)C=CC(C)(C)O2 [Compound 16, cudratricusxanthone N]	decreased
cudraxanthone D [Compound 9]	decreased

same assay, conditions: Homo sapiens; HaCaT cells pre-incubated with compound 3 h, then TNF-α + IFN-γ (20 ng/mL) 24 h; ELISA

Molecule	IC50
CC(C)=CCc1c(O)cc2c(c1O)C(=O)C[C@@H](c1cc3c(cc1O)OC(C)(C)C=C3)O2 [Compound 5, cudraflavanone A]	> 40 µM
C=CC(C)(C)c1c(O)cc(O)c2c(=O)c3c(CC=C(C)C)c(O)c(O)cc3oc12 [Compound 11, cudratricusxanthone A]	> 5 µM
C=CC(C)(C)c1c(O)c(CC=C(C)C)c2oc3cc(O)c(O)cc3c(=O)c2c1O [Compound 12, macluraxanthone B]	7.88 ± 3.09 µM
C=CC(C)(C)c1c(OC)c(CC=C(C)C)c2oc3cc(O)c(O)cc3c(=O)c2c1O [Compound 15, cudracuspixanthone A]	1.54 ± 0.53 µM
C=CC(C)(C)c1c2c(c3oc4cc(O)c(O)cc4c(=O)c3c1O)C=CC(C)(C)O2 [Compound 16, cudratricusxanthone N]	> 2 µM
COc1cc(/C=C/C(=O)CC(=O)/C=C/c2ccc(O)c(OC)c2)ccc1O [curcumin, reference compound]	10.3 ± 2.2 µM

system: HaCaT cells; assay: Cell Counting Kit (CCK)-8 cell viability / cytotoxicity assay; settings: CCK-8 assay, 24 h, concentration values that did not result in cytotoxicity
Experimental: The cytotoxicity of the 16 compounds was evaluated using a Cell Counting Kit (CCK)-8 assay on HaCaT cells.
To determine the viability of HaCaT cells, these were maintained at 2 × 10^4 cells/well, treated with the test compounds in the presence or absence of glutamate (5 mM), and cultured for 24 h. Subsequently, a CCK8 assay (Dojindo Laboratories, Kumamoto, Japan) was performed and the cells were incubated for 1 h. The absorbance was then measured at 450 nm.

Molecule	Cytotoxicity
CC(C)=CCc1c(O)cc2c(c1O)C(=O)C[C@@H](c1cc3c(cc1O)OC(C)(C)C=C3)O2 [Compound 5, cudraflavanone A]	>40 µM
C=CC(C)(C)c1c(O)cc(O)c2c(=O)c3c(CC=C(C)C)c(O)c(O)cc3oc12 [Compound 11, cudratricusxanthone A]	>5 µM
C=CC(C)(C)c1c(O)c(CC=C(C)C)c2oc3cc(O)c(O)cc3c(=O)c2c1O [Compound 12, macluraxanthone B]	>5 µM
C=CC(C)(C)c1c(OC)c(CC=C(C)C)c2oc3cc(O)c(O)cc3c(=O)c2c1O [Compound 15, cudracuspixanthone A]	>2 µM
C=CC(C)(C)c1c2c(c3oc4cc(O)c(O)cc4c(=O)c3c1O)C=CC(C)(C)O2 [Compound 16, cudratricusxanthone N]	>2 µM

system: NF-κB p65 translocation to the nucleus in HaCaT cells; assay: NF-κB p65 translocation to the nucleus in TNF-α + IFN-γ-treated HaCaT cells (Western blotting); type: cell-based, human; settings: HaCaT cells pretreated 3 h, then TNF-α + IFN-γ (20 ng/mL) 10 min; Western blot
Source text: as §2, §3, §4, §5

Molecule	NF-κB p65 translocation to the nucleus
C=CC(C)(C)c1c(O)c(CC=C(C)C)c2oc3cc(O)c(O)cc3c(=O)c2c1O [Compound 12, macluraxanthone B]	significantly inhibited

system: HaCaT cells; assay: not given; settings: not given

Molecule	Cytotoxicity
cudraxanthone D [Compound 9]	>5 µM
